Test systems include SR; CCRF-CEM; SK-MEL-5; SNB-75; DLD-1; CAKI-1; Hs-578T; MDA-MB-231; OVCAR-8; RXF 393; RPMI-8226; SF-268; SN12C; M14; MCF7; Malme-3M; UACC-257; T47D; SK-OV-3; ACHN.
Common to all, as to assay: DTP human tumour cell line panel, 48 h

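Interpolation was linear, between the two tested concentrations surrounding the appropriate level; five concentrations were tested over 48 hours in 96-well plates. GI50 is the concentration that inhibits growth by half.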 Activity calls are given as the source filed them. No stated cut-off is given here; in the data, active = GI50 up to about 1.1 µM and inactive = higher. Bounds are passed on as bounds.

As usually defined, the GI50 is the concentration that inhibits growth by half. In the case of `NS(=O)(=O)OCCCCCCCOS(N)(=O)=O`, the GI50 in the experiment with SR was 31.6 µM (inactive); in the experiment with CCRF-CEM, 46.8 µM (inactive); in the experiment on SK-MEL-5 it was 319 µM (inactive); in the experiment with SNB-75, 94.8 µM (inactive); with DLD-1 it was 495 µM (inactive); in the experiment on CAKI-1 it was 84.3 µM (inactive). For the same compound, the GI50 is 527 µM (inactive) in the experiment on Hs-578T; 445 µM (inactive) in the experiment on MDA-MB-231; 221 µM (inactive) with OVCAR-8; 289 µM (inactive) in the experiment on RXF 393; 296 µM (inactive) in the experiment with RPMI-8226; 130 µM (inactive) in the experiment with SF-268. The GI50 is 133 µM (inactive) in the experiment with SN12C; 187 µM (inactive) in the experiment on M14; 101 µM (inactive) in the experiment with MCF7; 437 µM (inactive) in the experiment on Malme-3M; 451 µM (inactive) with UACC-257; 246 µM (inactive) in the experiment on T47D. In addition, the values for the GI50 with SK-OV-3 and in the experiment on ACHN were 471 µM (inactive) and 64.9 µM (inactive), respectively.

Regarding `N#CCCN(CCC#N)c1ccc(/C=C(/NC(=O)c2cc([N+](=O)[O-])ccc2Cl)C(=O)N=[N+]=[N-])cc1`, the GI50 with SR, with CCRF-CEM, in the experiment with SK-MEL-5, with SNB-75, in the experiment with DLD-1 and in the experiment on CAKI-1 was > 100 µM (inactive) each time. The GI50 in the experiment on OVCAR-8, in the experiment with RXF 393, in the experiment with RPMI-8226, with SF-268, with SN12C and with M14 was > 100 µM (inactive) each time. The GI50 in the experiment with Malme-3M, in the experiment on UACC-257, in the experiment with SK-OV-3 and with ACHN was > 100 µM (inactive) in each case.

For the compound `O=S(=O)(c1ccccc1)C1CN2OC1(S(=O)(=O)c1ccccc1)CC21CCCCC1` (configuration not stated), the GI50 is 52.6 µM (inactive) with SR; > 100 µM (inactive) in the experiment with CCRF-CEM; > 100 µM (inactive) with SNB-75; > 100 µM (inactive) in the experiment with DLD-1; 73.3 µM (inactive) in the experiment on CAKI-1; > 100 µM (inactive) with OVCAR-8. For the same compound, the GI50 in the experiment on RXF 393 was 77.1 µM (inactive); in the experiment on RPMI-8226, 86.1 µM (inactive); with SF-268, > 100 µM (inactive); in the experiment on SN12C, > 100 µM (inactive); in the experiment on M14, > 100 µM (inactive); in the experiment with Malme-3M, > 100 µM (inactive). The GI50 in the experiment on UACC-257, with SK-OV-3 and in the experiment with ACHN was > 100 µM (inactive) in each case.

Consider `c1ccc(CN(Cn2cccn2)Cn2cccn2)nc1`, for which the GI50 in the experiment on SR was > 100 µM (inactive); with CCRF-CEM, > 100 µM (inactive); with SK-MEL-5, > 100 µM (inactive); in the experiment on SNB-75, > 100 µM (inactive); in the experiment on DLD-1, 87.3 µM (inactive); in the experiment with CAKI-1 it was > 100 µM (inactive). Moreover, the GI50 in the experiment with OVCAR-8 was > 100 µM (inactive); in the experiment on RXF 393, > 100 µM (inactive); in the experiment with RPMI-8226, 29.4 µM (inactive); with SF-268, > 100 µM (inactive); with SN12C it was > 100 µM (inactive); with M14, > 100 µM (inactive). For the same compound, the GI50 with UACC-257, in the experiment on SK-OV-3 and in the experiment with ACHN was > 100 µM (inactive) throughout.

Turning to `O=C1C2C(C(=O)N1c1ccccc1)C1(Br)c3ccccc3C2(Br)C2C(=O)N(c3ccccc3)C(=O)C21` (configuration not stated), the GI50 with SR is > 10 µM (inactive); in the experiment with CCRF-CEM it was 26.6 µM (inactive); with SK-MEL-5, > 31.6 µM (inactive); in the experiment on SNB-75 it was 13 µM (inactive); with DLD-1 it was 16.8 µM (inactive); with CAKI-1 it was 64 µM (inactive). In addition, the GI50 is > 100 µM (inactive) with OVCAR-8; 11 µM (inactive) in the experiment on RXF 393; 10.6 µM (inactive) with RPMI-8226; 27.7 µM (inactive) in the experiment with SF-268; > 31.6 µM (inactive) in the experiment on SN12C; > 31.6 µM (inactive) with M14. Besides, the GI50 is 30.1 µM (inactive) in the experiment with Malme-3M, > 31.6 µM (inactive) with UACC-257, > 100 µM (inactive) in the experiment with SK-OV-3 and 18.1 µM (inactive) in the experiment on ACHN.

For `O=C(Nc1cccc([N+](=O)[O-])c1)/C(=N\NC(=O)c1ccncc1)c1nc2ccc([N+](=O)[O-])cc2nc1O`, the GI50 in the experiment on SR is 42.7 µM (inactive); with CCRF-CEM, 14.7 µM (inactive); in the experiment with SK-MEL-5, 38 µM (inactive); in the experiment with DLD-1, > 10 µM (inactive); in the experiment on CAKI-1, 38.6 µM (inactive); with OVCAR-8, 50.1 µM (inactive). The GI50 in the experiment with RXF 393 was 60 µM (inactive); with RPMI-8226 it was 49.4 µM (inactive); with SF-268, 40.7 µM (inactive); in the experiment on SN12C it was > 100 µM (inactive); with M14, > 100 µM (inactive); with Malme-3M, > 100 µM (inactive). The GI50 in the experiment on UACC-257 was 46.7 µM (inactive); in the experiment with SK-OV-3, > 100 µM (inactive); in the experiment with ACHN, 19.7 µM (inactive).

Regarding `O=C1c2c(O)cccc2C(C(=O)CCCC(=O)C2c3cccc(O)c3C(=O)c3c(O)cccc32)c2cccc(O)c21`, the concentration for 50% growth inhibition (GI50) in the experiment with SR is 0.321 µM (active); with CCRF-CEM, 0.202 µM (active); in the experiment with SK-MEL-5, 0.259 µM (active); in the experiment with SNB-75 it was 0.448 µM (active); in the experiment with DLD-1, 0.388 µM (active); in the experiment with CAKI-1, 1.27 µM (inactive). The 50% growth inhibitory concentration (GI50) was 0.0665 µM (active) in the experiment on Hs-578T; 0.0822 µM (active) in the experiment with MDA-MB-231; 0.492 µM (active) with OVCAR-8; 0.0679 µM (active) with RPMI-8226; 0.248 µM (active) in the experiment on SF-268; 0.643 µM (active) in the experiment with SN12C. Further, the GI50 in the experiment with M14 was 0.368 µM (active); with MCF7, 0.598 µM (active); in the experiment on Malme-3M, 0.789 µM (active); in the experiment with UACC-257, 0.191 µM (active); with T47D, 0.279 µM (active); in the experiment with SK-OV-3 it was 0.353 µM (active). Besides, the 50% growth inhibitory concentration (GI50) in the experiment on ACHN is 0.378 µM (active).

In the case of `N#CC(C(=O)/C(=N\NC(N)=O)C(C#N)c1ccccc1)c1ccccc1` (configuration not stated), the GI50 with SR, in the experiment on CCRF-CEM, in the experiment on SNB-75, in the experiment with DLD-1, with CAKI-1 and with OVCAR-8 was > 100 µM (inactive) throughout. The GI50 in the experiment on RXF 393, in the experiment on RPMI-8226, with SF-268, with SN12C, in the experiment with M14 and with Malme-3M was > 100 µM (inactive) throughout. The GI50 in the experiment with UACC-257, with SK-OV-3 and in the experiment on ACHN was > 100 µM (inactive) throughout.

For `CNC(N)NC`, the GI50 in the experiment on SR, with CCRF-CEM, in the experiment with SK-MEL-5, in the experiment with SNB-75, in the experiment on DLD-1 and in the experiment on OVCAR-8 was > 100 µM (inactive) in each case. For the same compound, the GI50 in the experiment on RXF 393, in the experiment on RPMI-8226, in the experiment on SF-268, in the experiment with SN12C, in the experiment on M14 and in the experiment on Malme-3M was > 100 µM (inactive) in each case. Besides, the GI50 in the experiment on UACC-257, with SK-OV-3 and in the experiment with ACHN was > 100 µM (inactive) in each case.

For the compound `CCN(CC)CCNc1ccc2nnn3c4ccc(C)cc4c(=O)c1c23`, the GI50 in the experiment on SR is 3.37 µM (inactive); in the experiment with CCRF-CEM it was 4.16 µM (inactive); in the experiment on SK-MEL-5, 10.7 µM (inactive); in the experiment with SNB-75 it was 10.8 µM (inactive); in the experiment on DLD-1, 6.08 µM (inactive); in the experiment on CAKI-1 it was 13.2 µM (inactive). The GI50 was 5.22 µM (inactive) with OVCAR-8; 4.62 µM (inactive) in the experiment on RPMI-8226; 10.2 µM (inactive) in the experiment on SF-268; 8 µM (inactive) in the experiment on SN12C; 12.8 µM (inactive) in the experiment on M14; 12.6 µM (inactive) in the experiment with Malme-3M. Moreover, the GI50 was 13.2 µM (inactive) in the experiment on UACC-257, 10.9 µM (inactive) with SK-OV-3 and 5.45 µM (inactive) in the experiment on ACHN.

Turning to `CC1=C2C(=O)C(C)(C)C=C2C(=O)[C@](C)(O)C12CC2` [DEHYDROILLUDIN M], the concentration for 50% growth inhibition (GI50) in the experiment with SR was 0.61 µM (active); in the experiment with CCRF-CEM, > 1 µM (active); with SK-MEL-5 it was 0.296 µM (active); in the experiment on SNB-75 it was > 1 µM (active); with DLD-1 it was > 0.791 µM (active); in the experiment on CAKI-1 it was > 1 µM (active). The GI50 with OVCAR-8 is 0.56 µM (active); with RXF 393, 0.593 µM (active); with RPMI-8226, > 1 µM (active); in the experiment on SF-268 it was 0.521 µM (active); with SN12C it was > 1 µM (active); in the experiment with M14, 0.678 µM (active). In addition, the concentration for 50% growth inhibition (GI50) is 0.634 µM (active) with Malme-3M, 0.745 µM (active) with UACC-257, > 1 µM (active) in the experiment with SK-OV-3 and 0.552 µM (active) in the experiment on ACHN.

The record behind these values is ChEMBL document CHEMBL1201862, “PubChem BioAssay data set” (2004).
